Laboratory results published in patent publication EP1275386A1, “SOLID […] IMPROVED ABSORBABILITY” (FUJISAWA PHARMACEUTICAL CO., LTD., priority 2000, dated 2001).

Tests used:
[1] = Test on solubility of active component in water (Test Example 1); format: physicochemical; settings: 15mg equivalent of Active Component 1 in 7.5 mL of water at 37 °C, agitated with a stirrer; dihydrate
Source text: Compared was the solubility of the solid dispersions obtained in Examples 2, 3 and 5 (referred to as "Preparation 2," "Preparation 3" and "Preparation 5," respectively, hereinafter) containing as an active ingredient N-(3,4-dimethoxybenzyl)-2-[(trans-4-formamidocyclohexyl)amino]-5-nitrobenzamide dihydrate (referred to as "Active Component 1" hereinafter), the amorphous Active Component 1 obtained in Comparative Example 1 and the crystal Active Component 1 obtained in Production Example 1. The test was performed by adding Preparations 2, 3 and 5, the amorphous Active Component 1 and the crystal Active Component 1 each containing 15mg equivalent of Active Component 1 to 7.5 mL of water heated to 37 °C, agitating the resulting mixtures with a stirrer and measuring the concentration of Active Component 1 in the solutions. The results are shown in Fig. 1, which is a graphical representation showing the change with time of the solubility in water of Preparations 2, 3 and 5, the amorphous Active Component 1 and the crystal Active Component 1. […]

[2] = Test on crystal state of Active Component 1 by DSC, storage at 70 °C for 7 days (Test Example 2); format: physicochemical
Method: Preparations 2 and 3 containing Active Component 1 and the amorphous Active Component 1 after being stored at 70 °C for 7 days were tested on the crystal state of Active Component 1 by differential scanning calorimetry (DSC for short hereinafter). […]

Compound	Maximum Concentration Achieved of Active Component 1 in water [1]	D S C analysis results ([2]; After storage at 70 °C for 7 days)	D S C analysis results ([2]; Before storage)	change of crystal state of Active Component 1 ([2]; after being stored at 70 °C for 7 days, DSC)
COc1ccc(CNC(=O)c2cc([N+](=O)[O-])ccc2N[C@H]2CC[C@H](NC=O)CC2)cc1OC.O.O [Crystal Active Component 1, N-(3,4-dimethoxybenzyl)-2-[(trans-4-formamidocyclohexyl)amino]-5-nitrobenzamide dihydrate]	0.38 µg/mL			
COc1ccc(CNC(=O)c2cc([N+](=O)[O-])ccc2N[C@H]2CC[C@H](NC=O)CC2)cc1OC.O.O [Amorphous Active Component 1, N-(3,4-dimethoxybenzyl)-2-[(trans-4-formamidocyclohexyl)amino]-5-nitrobenzamide dihydrate]	8.68 µg/mL	Endothermic peak caused by melting indicative of existence of crystal was recognized.	Endothermic peak caused by melting indicative of existence of crystal was not recognized.	changed from the amorphous state to a crystal state
